This assay deals with USP30 (Homo sapiens (Human), UniProt Q70CQ3). Nature of the assay: In vitro biochemical assay for USP30 enzyme (Ubiquitin-Rhodamine110 cleavage, fluorescence). Particulars: 20 nM USP30, 15 min pre-incubation, 100 nM Ub rhodamine substrate, 2 hrs at room temperature.

Consider one molecule from patent US10968172B2, “USP30 inhibitors” (Mitobridge, Inc., priority 2017, dated 2021).

What is called IC50 is the concentration at which inhibition is half-maximal. Read a high IC50 as lower potency.

USP30, sequence (Q70CQ3 whole entry): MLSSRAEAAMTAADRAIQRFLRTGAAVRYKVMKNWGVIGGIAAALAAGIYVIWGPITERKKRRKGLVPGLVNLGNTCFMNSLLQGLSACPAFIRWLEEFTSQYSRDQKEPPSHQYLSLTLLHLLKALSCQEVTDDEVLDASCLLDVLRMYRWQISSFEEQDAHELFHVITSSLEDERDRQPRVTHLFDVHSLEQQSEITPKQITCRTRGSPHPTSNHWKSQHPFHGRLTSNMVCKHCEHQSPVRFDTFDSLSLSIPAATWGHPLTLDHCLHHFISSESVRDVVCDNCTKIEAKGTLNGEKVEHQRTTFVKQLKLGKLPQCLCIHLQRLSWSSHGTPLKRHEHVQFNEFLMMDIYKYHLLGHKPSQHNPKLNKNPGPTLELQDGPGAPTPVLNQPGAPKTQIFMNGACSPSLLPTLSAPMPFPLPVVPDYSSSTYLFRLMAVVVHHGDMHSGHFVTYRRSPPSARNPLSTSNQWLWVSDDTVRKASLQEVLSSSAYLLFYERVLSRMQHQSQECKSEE

With `CC(C)(C)NS(=O)(=O)c1cccc2c(NC(=O)[C@H](Cc3cccs3)NC(=O)c3ccccc3)cccc12` [Compound 7k, (S)-N-(1-((5-(N-(tert-butyl)sulfamoyl)naphthalen-1-yl)amino)-1-oxo-3-(thiophen-2-yl)propan-2-yl)benzamide], the half-maximal inhibitory concentration (IC50) came to 230 nM.
